The assay has as its target T1, recombinant IRAK-4 kinase (Homo sapiens, UniProt Q9NWZ3).
T1 construct: purchased Millipore, USA
T1 sequence (Q9NWZ3 1-460): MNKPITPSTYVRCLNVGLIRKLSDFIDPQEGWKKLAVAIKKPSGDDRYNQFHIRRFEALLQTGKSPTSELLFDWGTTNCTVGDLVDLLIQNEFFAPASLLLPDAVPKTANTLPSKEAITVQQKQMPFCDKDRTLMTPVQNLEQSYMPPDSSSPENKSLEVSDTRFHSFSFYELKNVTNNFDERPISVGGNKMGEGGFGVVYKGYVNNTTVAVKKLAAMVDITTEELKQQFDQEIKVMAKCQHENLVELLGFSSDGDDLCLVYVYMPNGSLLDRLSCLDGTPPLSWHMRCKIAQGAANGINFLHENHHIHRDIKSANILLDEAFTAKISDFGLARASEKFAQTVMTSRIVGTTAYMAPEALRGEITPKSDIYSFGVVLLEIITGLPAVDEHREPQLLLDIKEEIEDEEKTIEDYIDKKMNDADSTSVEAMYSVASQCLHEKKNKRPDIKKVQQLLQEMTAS
As to the kind of experiment: IRAK-4 Biochemical Assay (TR-FRET). Particulars: 5 ng IRAK-4 kinase, 100 nM Biotin Histone H3, 20 μM ATP, 30 minutes pre-incubation, read-out: IC50 values for IRAK4 activity. The method, then:
Compounds were tested for their potential to inhibit IRAK-4 enzyme in a TR-FRET assay using recombinant IRAK-4 kinase from Millipore, USA. The assay buffer was 50 mM Tris-HCl pH 7.5, 20 mM MgCl2, 1 mM EGTA, 2 mM DTT, 3 mM MnCl2 and 0.01% Tween20. 5 ng of IRAK-4 kinase was used for the assay. After pre-incubation of enzyme with test compound for 30 minutes at room temperature, a substrate mix containing 100 nM Biotin Histone H3 (Millipore, USA) and 20 μM ATP (Sigma, USA) was added and the reaction was incubated for 30 minutes. Post incubation, the reaction was stopped by the addition of stop mix containing 40 mM EDTA, 1 nM of Europium-Anti-Phospho-Histone H3 (Ser10) antibody (Perkin Elmer, USA) and 20 nM Sure Light Allophycocyanin-Streptavidin (Perkin Elmer, USA).

Each structure is given as a SMILES string. Structures can show the parent of a compound that is named as a salt. Bounds are passed on as bounds.

Drawing on US10047104B2, “Bicyclic heterocyclyl derivatives as IRAK4 inhibitors” (Aurigene Discovery Technologies Limited, priority 2014, dated 2018), this text covers IC50 for 27 compounds.

The IC50 is the midpoint of a concentration-inhibition curve. In the case of `Cn1cc(-c2cccc(C(=O)Nc3cc4sc(N5CCOCC5)nc4nc3N3CCCCC3)n2)cn1` [Example 51, 6-(1-methyl-1H-pyrazol-4-yl)-N-(2-morpholino-5-(piperidin-1-yl)thiazolo[4,5-b]pyridin-6-yl)picolinamide], the half-maximal inhibitory concentration (IC50) is less than 50 nM.
To `Cc1ncccc1-c1nc(C(=O)Nc2cc3sc(N4CCCCC4)nc3nc2N2CCCCC2)co1` [Example 52, N-(2,5-di(piperidin-1-yl)thiazolo[4,5-b]pyridin-6-yl)-2-(2-methylpyridin-3-yl)oxazole-4-carboxamide hydrochloride] belongs less than 50 nM.
The figure for `Cc1cc(-c2nc(C(=O)Nc3cc4sc(N5C[C@@H](C)O[C@@H](C)C5)nc4nc3N3CCCCC3)co2)ccn1` [Example 53, N-(2-((2S,6R)-2,6-dimethylmorpholino)-5-(piperidin-1-yl)thiazolo[4,5-b]pyridin-6-yl)-2-(2-methylpyridin-4-yl)oxazole-4-carboxamide] is less than 50 nM.
The figure for `Cc1ncccc1-c1nc(C(=O)Nc2cc3sc(N4CCOCC4)nc3nc2N2CCCCC2)co1` [Example 54, 2-(2-methylpyridin-3-yl)-N-(2-morpholino-5-(piperidin-1-yl)thiazolo[4,5-b]pyridin-6-yl)oxazole-4-carboxamide] is less than 50 nM.
Turning to `O=C(Nc1cc2sc(N3CCOCC3)nc2nc1N1CCCCC1)c1coc(-c2cccnc2O)n1` [Example 55, 2-(2-hydroxypyridin-3-yl)-N-(2-morpholino-5-(piperidin-1-yl)thiazolo[4,5-b]pyridin-6-yl)oxazole-4-carboxamide], the half-inhibitory concentration (IC50) was less than 50 nM.
The figure for `COc1cc(-c2nc(C(=O)Nc3cc4sc(N5CCCCC5)nc4nc3N3CCCCC3)co2)ccn1` [Example 56, N-(2,5-di(piperidin-1-yl)thiazolo[4,5-b]pyridin-6-yl)-2-(2-methoxypyridin-4-yl)oxazole-4-carboxamide] is less than 50 nM.
To `COc1ccc(-c2nc(C(=O)Nc3cc4sc(N5CCOCC5)nc4nc3N3CCCCC3)co2)cn1` [Example 57, 2-(6-methoxypyridin-3-yl)-N-(2-morpholino-5-(piperidin-1-yl)thiazolo[4,5-b]pyridin-6-yl)oxazole-4-carboxamide] belongs less than 50 nM.
The figure for `COc1cc(-c2nc(C(=O)Nc3cc4sc(N5CCOCC5)nc4nc3N3CCCCC3)co2)ccn1` [Example 58, 2-(2-methoxypyridin-4-yl)-N-(2-morpholino-5-(piperidin-1-yl)thiazolo[4,5-b]pyridin-6-yl)oxazole-4-carboxamide] is less than 50 nM; for `Cc1cc(-c2nc(C(=O)Nc3cc4sc(N5CCOCC5)nc4nc3N3CCC[C@H](F)C3)co2)ccn1` [Example 59, (S)—N-(5-(3-fluoropiperidin-1-yl)-2-morpholinothiazolo[4,5-b]pyridin-6-yl)-2-(2-methylpyridin-4-yl)oxazole-4-carboxamide] it is less than 50 nM.
In the case of `Cc1ccc(-c2nc(C(=O)Nc3cc4sc(N5CCOCC5)nc4nc3N3CCCCC3)co2)cn1` [Example 60, 2-(6-methylpyridin-3-yl)-N-(2-morpholino-5-(piperidin-1-yl)thiazolo[4,5-b]pyridin-6-yl)oxazole-4-carboxamide], the IC50 was less than 50 nM.
The figure for `Cc1cnccc1-c1nc(C(=O)Nc2cc3sc(N4CCOCC4)nc3nc2N2CCCCC2)co1` [Example 61, 2-(3-methylpyridin-4-yl)-N-(2-morpholino-5-(piperidin-1-yl)thiazolo[4,5-b]pyridin-6-yl)oxazole-4-carboxamide] is less than 50 nM.
The figure for `N[C@H]1CCN(c2cccc(C(=O)Nc3cc4sc(N5CCOCC5)nc4nc3N3CCCCC3)n2)C1` [Example 62, (S)-6-(3-aminopyrrolidin-1-yl)-N-(2-morpholino-5-(piperidin-1-yl)thiazolo[4,5-b]pyridin-6-yl)picolinamide] is less than 50 nM; for `O=C(Nc1cc2sc(N3CCOCC3)nc2nc1N1CCCCC1)c1cccc(N2CC[C@H](O)C2)n1` [Example 63, (S)-6-(3-hydroxypyrrolidin-1-yl)-N-(2-morpholino-5-(piperidin-1-yl)thiazolo[4,5-b]pyridin-6-yl)picolinamide] it is less than 50 nM; for `N[C@H]1CCN(c2cccc(C(=O)Nc3cc4sc(N5CCCCC5)nc4nc3N3CCCCC3)n2)C1` [Example 64, (S)-6-(3-aminopyrrolidin-1-yl)-N-(2,5-di(piperidin-1-yl)thiazolo[4,5-b]pyridin-6-yl)picolinamide] it is less than 50 nM.
The figure for `O=C(Nc1cc2sc(N3CCCCC3)nc2nc1N1CCCCC1)c1cccc(N2CC[C@H](O)C2)n1` [Example 65, (S)—N-(2,5-di(piperidin-1-yl)thiazolo[4,5-b]pyridin-6-yl)-6-(3-hydroxypyrrolidin-1-yl)picolinamide] is less than 50 nM.
For the compound `N[C@H]1CCN(c2nc(C(=O)Nc3cc4sc(N5CCOCC5)nc4nc3N3CCCCC3)co2)C1` [Example 66, (S)-2-(3-aminopyrrolidin-1-yl)-N-(2-morpholino-5-(piperidin-1-yl)thiazolo[4,5-b]pyridin-6-yl)oxazole-4-carboxamide], the IC50 is less than 50 nM.
To `Cc1cc(-c2nc(C(=O)Nc3cc4sc(N5CCOCC5)nc4nc3N3CC[C@H](N)C3)co2)ccn1` [Example 67, (S)—N-(5-(3-aminopyrrolidin-1-yl)-2-morpholinothiazolo[4,5-b]pyridin-6-yl)-2-(2-methylpyridin-4-yl)oxazole-4-carboxamide] belongs less than 50 nM; to `N[C@H]1CCN(c2nc(C(=O)Nc3cc4sc(N5CCOCC5)nc4nc3C3CC3)co2)C1` [Example 68, (S)-2-(3-aminopyrrolidin-1-yl)-N-(5-cyclopropyl-2-morpholinothiazolo[4,5-b]pyridin-6-yl)oxazole-4-carboxamide], 50 to 100 nM.
To `Cc1cc(-c2nc(C(=O)Nc3cc4sc(N5CCOCC5)nc4nc3C3CC3)co2)ccn1` [Example 69, N-(5-cyclopropyl-2-morpholinothiazolo[4,5-b]pyridin-6-yl)-2-(2-methylpyridin-4-yl)oxazole-4-carboxamide] belongs less than 50 nM; to `O=C(Nc1cc2sc(N3CCOCC3)nc2nc1N1CCCCC1)c1coc(N2CC[C@H](O)C2)n1` [Example 70, (S)-2-(3-hydroxypyrrolidin-1-yl)-N-(2-morpholino-5-(piperidin-1-yl)thiazolo[4,5-b]pyridin-6-yl)oxazole-4-carboxamide], less than 50 nM; to `Cc1cc(-c2nc(C(=O)Nc3cc4sc(N5CCOCC5)nc4nc3N3CC[C@H](O)C3)co2)ccn1` [Example 71, (S)—N-(5-(3-hydroxypyrrolidin-1-yl)-2-morpholinothiazolo[4,5-b]pyridin-6-yl)-2-(2-methylpyridin-4-yl)oxazole-4-carboxamide], less than 50 nM.
For the compound `O=C(Nc1cc2sc(N3CCOCC3)nc2nc1C1CC1)c1cccc(N2CC[C@H](O)C2)n1` [Example 72, (S)—N-(5-cyclopropyl-2-morpholinothiazolo[4,5-b]pyridin-6-yl)-6-(3-hydroxypyrrolidin-1-yl)picolinamide], the IC50 was less than 50 nM.
The figure for `O=C(Nc1cc2sc(N3CCOCC3)nc2nc1C1CC1)c1coc(N2CC[C@H](O)C2)n1` [Example 73, (S)—N-(5-cyclopropyl-2-morpholinothiazolo[4,5-b]pyridin-6-yl)-2-(3-hydroxypyrrolidin-1-yl)oxazole-4-carboxamide] is less than 50 nM; for `C[C@H](O)Cn1cc(-c2cccc(C(=O)Nc3cc4sc(N5CCOCC5)nc4nc3C3CC3)n2)cn1` [Example 74, (S)—N-(5-cyclopropyl-2-morpholinothiazolo[4,5-b]pyridin-6-yl)-6-(1-(2-hydroxypropyl)-1H-pyrazol-4-yl)picolinamide] it is less than 50 nM; for `C[C@H](O)Cn1cc(-c2nc(C(=O)Nc3cc4sc(N5CCOCC5)nc4nc3C3CC3)co2)cn1` [Example 75, (S)—N-(5-cyclopropyl-2-morpholinothiazolo[4,5-b]pyridin-6-yl)-2-(1-(2-hydroxypropyl)-1H-pyrazol-4-yl)oxazole-4-carboxamide] it is less than 50 nM.
The figure for `COc1ccc(-c2nc(C(=O)Nc3cc4sc(N5CCOCC5)nc4nc3N3CCC(O)C3)co2)cn1` (stereo not drawn) [Example 76, N-(5-(3-hydroxypyrrolidin-1-yl)-2-morpholinothiazolo[4,5-b]pyridin-6-yl)-2-(6-methoxypyridin-3-yl)oxazole-4-carboxamide] is less than 50 nM; for `COc1ccc(-c2nc(C(=O)Nc3cc4sc(N5CCOCC5)nc4nc3N3CC[C@H](O)C3)co2)cn1` [Example 77, (S)—N-(5-(3-hydroxypyrrolidin-1-yl)-2-morpholinothiazolo[4,5-b]pyridin-6-yl)-2-(6-methoxypyridin-3-yl)oxazole-4-carboxamide] it is less than 50 nM.
